# Test results as given in ChEMBL document CHEMBL5120914, “An O-Benzyl Phosphonamidate Prodrug of Tenofovir for the Treatment of Hepatitis B Virus Infection” (J Med Chem, 2022).
# Tests used:
# [1] = Cytotoxicity against human HepG2 cells assessed as reduction in cell growth incubated for 3 days by MTT assay; assay type: toxicity, cell-based; settings: time 3 day
# Hepatitis B virus [2] = assay: Antiviral activity against Hepatitis B virus infected in human HepG2.2.15 cells assessed as inhibition of viral DNA replication measured for 9 days by FQ-PCR analysis; assay type: functional, organism-based; settings: HepG2 2.2.15, 216 h
# Hepatitis B virus [3] = assay: Antiviral activity against Hepatitis B virus infected in human HepG2.2.15 cells assessed as inhibition of viral DNA replication at 1 uM measured after 6 days by FQ-PCR analysis relative to control; assay type: functional, HepG2 2.2.15; design: scale not given: the % may be the effect or the level left; settings: time 6 day
# Hepatitis B virus [4] = assay: Antiviral activity against Hepatitis B virus infected in ig dosed duck assessed as reduction in viral DNA replication in liver administered once daily for first 10 days followed by increase in dose administered for another 18 days; assay type: functional, organism-based; settings: dose 10-40 mg/kg, time 28.0 day, DDE = dose-dependent effect
# HepG2 = assay: Cytotoxicity against human HepG2 cells assessed as reduction in cell growth upto 500 uM incubated for 3 days by MTT assay; assay type: toxicity, cell-based; settings: hepg2, 72 h, time 3 day
# [5] = Acute toxicity in overnight fasted Kunming mouse assessed as liver tissue damage at 1.5 g/Kg, IG measured on day 15; assay type: tissue-based; settings: in vivo, po, 1500 mg/kg
# [6] = Acute toxicity in overnight fasted Kunming mouse assessed as animal survival at 1.5 g/Kg, IG measured for 15 days; settings: in vivo, po, 1500 mg/kg, 360 h, time 15 day
# [7] = Acute toxicity in overnight fasted Kunming mouse assessed as spleen tissue damage at 1.5 g/Kg, IG measured on day 15; assay type: tissue-based; settings: in vivo, po, 1500 mg/kg
# [8] = Metabolic stability in rat plasma assessed as half life measured upto 25 mins by HPLC analysis; assay type: ADME, cell-free
# [9] = Acute toxicity in overnight fasted Kunming mouse assessed as change in body weight at 1.5 g/Kg, IG measured for 15 days; settings: in vivo, po, 1500 mg/kg, 360 h, time 15 day
# [10] = Toxicity in duck assessed as animal survival at 2.5 to 10 mg/kg, IG administered once daily for first 10 days followed by 10 to 40 mg/kg, IG for another 18 days; assay type: organism-based; settings: anas platyrhynchos, in vivo, po, 672 h, dose 2.5-40 mg/kg, time 28 day
# [11] = Drug metabolism in Sprague-Dawley rat liver assessed as AUC(0 to t) of TFV-DP at 20 mg/kg, IG meaured upto 12 hrs by HPLC-MS/MS analysis; assay type: ADME, organism-based; settings: in vivo, po
# [12] = Toxicity in duck assessed as liver hemorrhage at 2.5 to 10 mg/kg, IG administered once daily for first 10 days followed by 10 to 40 mg/kg, IG for another 18 days by hematoxyin-eosin staining based light microscopic analysis; assay type: organism-based; settings: anas platyrhynchos, in vivo, po, 672 h, dose 2.5-40 mg/kg, time 28 day
# Hepatitis B virus [13] = assay: Antiviral activity against Hepatitis B virus infected in duck assessed as log reduction in viral DNA replication in serum at 2.5 to 10 mg/kg, IG administered once daily for first 10 days followed by 10 mg/kg, IG administered for another 18 days; assay type: functional; settings: dose 2.5-10 mg/kg, time 28 day
# [14] = Toxicity in duck assessed as body weight gain at 2.5 to 10 mg/kg, IG administered once daily for first 10 days followed by 10 to 40 mg/kg, IG for another 18 days; assay type: organism-based; settings: anas platyrhynchos, in vivo, po, 672 h, dose 2.5-40 mg/kg, time 28 day
# [15] = Toxicity in duck assessed as body weight loss at 2.5 to 10 mg/kg, IG administered once daily for first 10 days followed by 10 to 40 mg/kg, IG for another 18 days; assay type: organism-based; settings: anas platyrhynchos, in vivo, po, 672 h, dose 2.5-40 mg/kg, time 28 day
# [16] = Acute toxicity in overnight fasted Kunming mouse assessed as side effects at 1.5 g/Kg, IG measured for 15 days; settings: in vivo, po, 1500 mg/kg, 360 h, time 15 day
# [17] = Toxicity in duck assessed as liver necrosis at 2.5 to 10 mg/kg, IG administered once daily for first 10 days followed by 10 to 40 mg/kg, IG for another 18 days by hematoxyin-eosin staining based light microscopic analysis; assay type: organism-based; settings: anas platyrhynchos, in vivo, po, 672 h, dose 2.5-40 mg/kg, time 28 day
# Hepatitis B virus [18] = assay: Antiviral activity against Hepatitis B virus infected in duck assessed as log reduction in viral DNA replication in serum at 2.5 to 10 mg/kg, IG administered once daily for first 10 days followed by 40 mg/kg, IG administered for another 18 days; assay type: functional; settings: dose 2.5-40 mg/kg, time 28 day
# [19] = Acute toxicity in overnight fasted Kunming mouse assessed as heart tissue damage at 1.5 g/Kg, IG measured on day 15; settings: in vivo, po, 1500 mg/kg
# [20] = Toxicity in duck assessed as inflammatory response in liver at 2.5 to 10 mg/kg, IG administered once daily for first 10 days followed by 10 to 40 mg/kg, IG for another 18 days by hematoxyin-eosin staining based light microscopic analysis; assay type: organism-based; settings: anas platyrhynchos, in vivo, po, 672 h, dose 2.5-40 mg/kg, time 28 day
# Hepatitis B virus [21] = assay: Antiviral activity against Hepatitis B virus infected in duck assessed as log reduction in viral DNA replication in serum at 2.5 to 10 mg/kg, IG administered once daily for first 10 days followed by 20 mg/kg, IG administered for another 18 days; assay type: functional; settings: dose 2.5-20 mg/kg, time 28 day
# [22] = Acute toxicity in overnight fasted Kunming mouse assessed as kidney tissue damage at 1.5 g/Kg, IG measured on day 15; assay type: tissue-based; settings: in vivo, po, 1500 mg/kg
# [23] = Metabolic stability in human plasma assessed as half life measured upto 24 hrs by HPLC analysis; assay type: ADME, cell-free
# [24] = Metabolic stability in dog plasma assessed as half life measured upto 24 hrs by HPLC analysis; assay type: ADME, cell-free, Canis lupus familiaris
# [25] = Acute toxicity in overnight fasted Kunming mouse assessed as lung tissue damage at 1.5 g/Kg, IG measured on day 15; assay type: tissue-based; settings: in vivo, po, 1500 mg/kg
smiles,measurement,setting,value
CC(C)OC(=O)[C@H](C)NP(=O)(CO[C@H](C)Cn1cnc2c(N)ncnc21)OCc1ccccc1Br (stereo not given in full),CC50 at 72 h,[1],490 µM
same,EC50,Hepatitis B virus [2],0.052 µM
same,Activity,Hepatitis B virus [3],80.75%
CC(C)OC(=O)[C@H](C)NP(=O)(CO[C@H](C)Cn1cnc2c(N)ncnc21)OCc1cccc([N+](=O)[O-])c1 (stereo not given in full),CC50 at 72 h,[1],> 500 µM
same,Activity,Hepatitis B virus [3],34.63%
CC(C)OC(=O)[C@H](C)NP(=O)(CO[C@H](C)Cn1cnc2c(N)ncnc21)OCc1ccc([N+](=O)[O-])cc1 (stereo not given in full),CC50 at 72 h,[1],> 500 µM
same,Activity,Hepatitis B virus [3],22.15%
CCOC(=O)[C@H](C)NP(=O)(CO[C@H](C)Cn1cnc2c(N)ncnc21)OCc1ccccc1C (stereo not given in full),CC50 at 72 h,[1],> 500 µM
same,Activity,Hepatitis B virus [3],41.27%
CC(C)OC(=O)[C@H](C)NP(=O)(CO[C@H](C)Cn1cnc2c(N)ncnc21)OCc1ccccc1Cl (stereo not given in full),CC50 at 72 h,[1],> 500 µM
same,Activity,Hepatitis B virus [3],42.6%
Cc1ccccc1COP(=O)(CO[C@H](C)Cn1cnc2c(N)ncnc21)N[C@@H](C)C(=O)OC(C)C (stereo in doubt; 1a) [listing 1 of 2 here],Activity,Hepatitis B virus [4],Dde
CCCOC(=O)[C@H](C)NP(=O)(CO[C@H](C)Cn1cnc2c(N)ncnc21)OCc1ccccc1C (stereo not given in full),CC50 at 72 h,[1],> 500 µM
same,Activity,Hepatitis B virus [3],14.35%
Cc1ccccc1COP(=O)(CO[C@H](C)Cn1cnc2c(N)ncnc21)N[C@@H](C)C(=O)OCC(C)C (stereo not given in full),CC50 at 72 h,[1],> 500 µM
same,Activity,Hepatitis B virus [3],25.78%
Cc1ccccc1COP(=O)(CO[C@H](C)Cn1cnc2c(N)ncnc21)N[C@@H](C)C(=O)OC(C)C (stereo in doubt; 1a-1),Activity,HepG2,Non-Toxic
same,Activity,"Hepatitis B virus [3]; 144 h, 1 µM",62.5%
CC(C)OC(=O)[C@H](C)NP(=O)(CO[C@H](C)Cn1cnc2c(N)ncnc21)OCc1cccc(Cl)c1 (stereo not given in full),CC50 at 72 h,[1],> 500 µM
same,EC50,Hepatitis B virus [2],0.047 µM
same,Activity,Hepatitis B virus [3],73.95%
CCCCOC(=O)[C@H](C)NP(=O)(CO[C@H](C)Cn1cnc2c(N)ncnc21)OCc1ccccc1C (stereo not given in full),CC50 at 72 h,[1],> 500 µM
same,Activity,Hepatitis B virus [3],22.62%
CC(C)OC(=O)[C@H](C)NP(=O)(CO[C@H](C)Cn1cnc2c(N)ncnc21)OCc1ccccc1F (stereo not given in full),CC50 at 72 h,[1],> 500 µM
same,EC50,Hepatitis B virus [2],0.029 µM
same,Activity,Hepatitis B virus [3],66.36%
CC(C)OC(=O)[C@H](C)NP(=O)(CO[C@H](C)Cn1cnc2c(N)ncnc21)OCc1ccccc1 (stereo not given in full),CC50 at 72 h,[1],> 500 µM
same,Activity,Hepatitis B virus [3],47.14%
CC(C)OC(=O)[C@H](C)NP(=O)(CO[C@H](C)Cn1cnc2c(N)ncnc21)OCc1ccc(C(F)(F)F)cc1 (stereo not given in full),CC50 at 72 h,[1],> 500 µM
same,EC50,Hepatitis B virus [2],0.147 µM
same,Activity,Hepatitis B virus [3],63.45%
Cc1ccccc1COP(=O)(CO[C@H](C)Cn1cnc2c(N)ncnc21)N[C@@H](C)C(=O)OCC(C)(C)C (stereo not given in full),CC50 at 72 h,[1],> 500 µM
same,Activity,Hepatitis B virus [3],35.22%
Cc1ccccc1COP(=O)(CO[C@H](C)Cn1cnc2c(N)ncnc21)N[C@@H](C)C(=O)OC(C)C (stereo in doubt; 1a-2),Activity,"Hepatitis B virus [3]; 144 h, 1 µM",85.4%
CC(C)OC(=O)[C@H](C)NP(=O)(CO[C@H](C)Cn1cnc2c(N)ncnc21)OCc1cccc(C(F)(F)F)c1 (stereo not given in full),CC50 at 72 h,[1],> 500 µM
same,Activity,Hepatitis B virus [3],35.34%
Cc1ccccc1COP(=O)(CO[C@H](C)Cn1cnc2c(N)ncnc21)N[C@@H](C)C(=O)OC(C)C (stereo in doubt; 1a) [listing 2 of 2 here],Activity,[5],Non-Toxic
same,Activity,[6],Non-Toxic
same,Activity,[7],Non-Toxic
same,half-life,[8],< 5 min
same,Activity,[9],Non-Toxic
same,Activity,[10],Non-Toxic
same,AUCt,[11],781.6 ng·h/g
same,Activity,[12],Non-Toxic
same,Activity,Hepatitis B virus [13],3
same,Activity,[14],Toxic
same,Activity,[15],Non-Toxic
same,Activity,[16],Non-Toxic
same,Activity,[17],Non-Toxic
same,Activity,Hepatitis B virus [18],2.9
same,Activity,[19],Non-Toxic
same,Activity,[20],Non-Toxic
same,CC50 at 72 h,[1],> 500 µM
same,Activity,Hepatitis B virus [21],3.6
same,Activity,[22],Non-Toxic
same,half-life,[23],> 24 h
same,EC50,Hepatitis B virus [2],0.024 µM
same,Activity,"Hepatitis B virus [3]; 144 h, 1 µM",81.72%
same,half-life,[24],> 24 h
same,Activity,[25],Non-Toxic
